Measurements: US20090317496A1, “Method for Preventing and Treating the Disease Caused by Vascular Damage and the Use Thereof” (priority 2005, published 2009)

Legend:
[1] = tested on: retinal vascular endothelial cell; experiment: MTT assay, apoptosis of retinal vascular endothelial cell caused by the lack of serum; type: cell-based, human; details: FBS free medium, 10 μg/ml, 24 hours; FIG. 3c
Procedure: (§1) The HUVEC (human umbilical venous endothelial cell) and retinal vascular endothelial cell (cell-systems, USA) were incubated at M199 medium containing 20% (w/v) FBS (HyClone, Canada), 100 units/m ? of penicillin (Invitrogen, USA), 100 μg/m ? of streptomycin (Invitrogen, USA), 3 ng/m ? of bFGF (basic fibroblast growth factor, Upstate Biotechnology, USA) and 5 units/m ? of heparin (Life Technologies, USA) under 5% CO2 gas condition at 37° C. (See FIG. 2a and FIG. 2b).
(§2) To investigate the suppression effect of SG was determined by (3-[4,5-dimethylthiazol-2-yl]-2,5-diphenyl tetrazolium bromide (MTT) assay method disclosed in the literature (Wang Z et al., Biol., Pharm. Bull., 24, pp 159-162, 2001).
(§3) HUVEC and retinal vascular endothelial cell were spread on 24-well plates (3×10^4 cells/well) and were incubated for 24 hours. The mediums were substituted with new medium containing 20% (w/v) FBS and FBS free medium respectively. The FBS free medium was treated with various concentrations of SG, i.e., 0, 1, 5, 10, 20 μg/m ? . The medium was incubated for 24 hours. After the incubation, MTT assay was performed.
(§4) To investigate the suppressive effect of SG, Rb1, Rg1, Re, Rg3, Rg5 and Rk1 on the cell apoptosis if retinal vascular endothelial cell caused by the lack of serum, the effect were determined by (3-[4,5-dimethylthiazol-2-yl]-2,5-diphenyl tetrazolium bromide (MTT) assay method disclosed in the literature (Wang Z et al., Biol., Pharm. Bull., 24, pp 159-162, 2001).
(§5) HUVEC and retinal vascular endothelial cell were spread on 24-well plates (3×10^4 cells/well) and were incubated for 24 hours respectively. The mediums were substituted with new medium containing 20% (w/v) FBS and FBS free medium respectively. The FBS free medium was treated with 10 μg/m ? of SG, Rb1, Rg1, Re, Rg3, Rg5 and Rk1 and the medium was incubated for 24 hours. After the incubation, MTT assay was performed.

[2] = tested on: HUVEC (human umbilical venous endothelial cell); experiment: MTT assay, apoptosis of HUVEC caused by the lack of serum; type: cell-based; details: FBS free medium, 10 μg/ml, 24 hours; FIG. 3c
Procedure: as §1, §2, §3, §4, §5

[3] = tested on: vascular endothelial cells (HUVEC); experiment: MTT assay, Rk1 on apoptosis of vascular endothelial cell caused by the lack of serum; type: cell-based, human; details: FBS free medium, Rk1 0, 0.5, 1, 5, 10 μg/ml, 24 hours; FIG. 4
Procedure: FIG. 4 is the result of MTT assay showing suppressive effect of Rk1 on the apoptosis of HUVEC in medium,
as §3, with “Vascular” for “HUVEC and retinal vascular”, “Rk1,” for “SG,”, “0, 0.5,” for “0,”, “10” for “10, 20”, “and” for “. The medium was”

[4] = tested on: vascular endothelial cells (HUVEC); experiment: DAPI staining, DNA fragmentation of vascular endothelial cell caused by the lack of serum; type: cell-based, human; details: FBS free medium, Rk1 0, 0.5, 1, 5, 10 μg/ml, 24 hours; FIG. 5
Procedure: FIG. 5 is the result of staining with DAPI showing suppressive effect of Rk1 on the apoptosis of HUVEC in medium,
Vascular endothelial cell were spread on 35 mm dish (1.5×10^5 cells/well) and were incubated for 24 hours. The mediums were substituted with new medium containing 20% (w/v) FBS and FBS free medium respectively. The FBS free medium was treated with various concentrations of Rk1, i.e., 0, 0.5, 1, 5, 10 μg/m ? and incubated for 24 hours. After the incubation, the medium was washed with PBS solution 2 times, fixed with 2% of paraformaldehyde and washed with PBS solution 2 times again. DAPI (4′,6-Diamidino-2-phenylindole-2-HCl. Calbiochem, USA) solution was added thereto, incubated for 30 minutes in darkroom and washed with PBS two times. The DNA fragmentation was measured by fluorescent microscope (Fluorescent microscope, Axioplan2, ZEISS, Germany) after mounting with cover slip.

[5] = tested on: tight junction proteins ZO-1, ZO-2 and occludin; experiment: Western blot of tight junction proteins in human retinal vascular endothelial cells; type: cell-based; details: human retinal endothelial cell, FIG. 6a
Procedure: Human retinal vascular endothelial cell were spread on 60 mm dish (3×10^5 cells/well) and were incubated for 24 hours.
The cells were transferred to human endothelial SFM-basal growth medium (Invitrogen, USA), incubated for 24 hours and transferred to new human endothelial SFM-basal growth medium again. The medium was treated with 20 ng/m ? of VEGF (vascular endothelial growth factor) and Rk1, and incubated for 6 hours. After the incubation, the cells were collected to induce lysis and western blot analysis was performed.

[6] = tested on: tight junction proteins ZO-1, ZO-2 and occludin; experiment: Western blot of tight junction proteins in mouse retina; type: in vivo, C57/BL6 mice; details: FIG. 6b
[7] = tested on: tight junction protein ZO-1, ZO-2 and occludin; experiment: Immunocytochemistry of tight junction proteins in human retinal vascular endothelial cells; type: cell-based; details: human retinal endothelial cell
Procedure: Human retinal vascular endothelial cell were spread on 35 mm dish (2×10^5 cells/well) and were incubated for 24 hours. The cells were transferred to human endothelial SFM-basal growth medium (Invitrogen, USA), incubated for 24 hours and transferred to new human endothelial SFM-basal growth medium again. The medium was treated with 20 ng/m ? of VEGF (vascular endothelial growth factor) and Rk1, and incubated for 6 hours. After the incubation, the medium was washed with PBS solution and immunocytochemistry analysis was performed to determine the change of tight junction protein.

[8] = tested on: tight junction protein ZO-1, ZO-2 and occludin; experiment: Immunocytochemistry of tight junction proteins in mouse retina; type: in vivo, C57/BL6 mice
[9] = tested on: retinal vessel of C57/BL6 mice; experiment: Angiography with FITC-dextran, permeability of retinal vessel; type: in vivo; details: FIG. 11
Procedure: Both of 100 ng of VEGF and 30 μg of Rk1 were injected into the retina of C57/BL6 mice (Orient, Korea). After 24 hours, the mice were anesthetized and FITC-dextran was injected into the heart to allow fluorescent material to flow in blood. […] In the only VEGF-injected mice, it has been confirmed that the fluorescent material was exuded from neighboring tissues around blood vessel caused by the increased permeability of retinal vessel however the exudation in VEGF was recovered by the treatment of Rk1.
Likewise, it has been also confirmed that the fluorescent material was exuded from neighboring tissues around blood vessel caused by the increased permeability of retinal vessel in diabetes induced mice however the exudation was recovered by the treatment of Rk1.

## CC(C)=CCC[C@](C)(O[C@@H]1O[C@H](CO[C@@H]2O[C@H](CO)[C@@H](O)[C@H](O)[C@H]2O)[C@@H](O)[C@H](O)[C@H]1O)[C@H]1CC[C@]2(C)[C@@H]1[C@H](O)C[C@@H]1[C@@]3(C)CC[C@H](O[C@@H]4O[C@H](CO)[C@@H](O)[C@H](O)[C@H]4O[C@@H]4O[C@H](CO)[C@@H](O)[C@H](O)[C@H]4O)C(C)(C)[C@@H]3CC[C@]12C [Rb1, ginsenoside Rb1, reference compound]
[1]
  apoptosis and cell viability of retinal vascular endothelial cells (MTT assay): did not

## CC(C)=CCC[C@](C)(O[C@@H]1O[C@H](CO)[C@@H](O)[C@H](O)[C@H]1O)[C@H]1CC[C@]2(C)[C@@H]1[C@H](O)C[C@@H]1[C@@]3(C)CC[C@H](O)C(C)(C)[C@@H]3[C@@H](O[C@@H]3O[C@H](CO)[C@@H](O)[C@H](O)[C@H]3O[C@@H]3O[C@@H](C)[C@H](O)[C@@H](O)[C@H]3O)C[C@]12C [Re, ginsenoside Re, reference compound]
[1]
  apoptosis and cell viability of retinal vascular endothelial cells (MTT assay): did not

## CC(C)=CCC[C@](C)(O[C@@H]1O[C@H](CO)[C@@H](O)[C@H](O)[C@H]1O)[C@H]1CC[C@]2(C)[C@@H]1[C@H](O)C[C@@H]1[C@@]3(C)CC[C@H](O)C(C)(C)[C@@H]3[C@@H](O[C@@H]3O[C@H](CO)[C@@H](O)[C@H](O)[C@H]3O)C[C@]12C [Rg1, ginsenoside Rg1, reference compound]
[1]
  apoptosis and cell viability of retinal vascular endothelial cells (MTT assay): did not

## CC(C)=CCC[C@](C)(O)[C@H]1CC[C@]2(C)[C@@H]1[C@H](O)C[C@@H]1[C@@]3(C)CC[C@H](O[C@@H]4O[C@H](CO)[C@@H](O)[C@H](O)[C@H]4O[C@@H]4O[C@H](CO)[C@@H](O)[C@H](O)[C@H]4O)C(C)(C)[C@@H]3CC[C@]12C [Rg3, ginsenoside Rg3]
[2]
  apoptosis and cell viability of HUVEC (MTT assay): inhibited the apoptosis
[1]
  apoptosis and cell viability of retinal vascular endothelial cells (MTT assay): inhibited the apoptosis

## CC(C)=CC/C=C(\C)[C@H]1CC[C@]2(C)[C@@H]1[C@H](O)C[C@@H]1[C@@]3(C)CC[C@H](O[C@@H]4O[C@H](CO)[C@@H](O)[C@H](O)[C@H]4O[C@@H]4O[C@H](CO)[C@@H](O)[C@H](O)[C@H]4O)C(C)(C)[C@@H]3CC[C@]12C [Rg5, ginsenoside Rg5]
[2]
  apoptosis and cell viability of HUVEC (MTT assay): inhibited the apoptosis
[1]
  apoptosis and cell viability of retinal vascular endothelial cells (MTT assay): inhibited the apoptosis

## C=C(CCC=C(C)C)[C@H]1CC[C@]2(C)[C@@H]1[C@H](O)C[C@@H]1[C@@]3(C)CC[C@H](O[C@@H]4O[C@H](CO)[C@@H](O)[C@H](O)[C@H]4O[C@@H]4O[C@H](CO)[C@@H](O)[C@H](O)[C@H]4O)C(C)(C)[C@@H]3CC[C@]12C [Rk1, ginsenoside Rk1]
[2]
  apoptosis and cell viability of HUVEC (MTT assay): inhibited the apoptosis
[1]
  apoptosis and cell viability of retinal vascular endothelial cells (MTT assay): inhibited the apoptosis
[3]
  apoptosis and cell viability of vascular endothelial cells (MTT assay): inhibited the apoptosis
[4]
  DNA fragmentation of vascular endothelial cells (DAPI): suppressed the DNA fragmentation
[5]; decrease caused by AGE (advanced glycation end product)
  recovering effect on the decrease of tight junction proteins ZO-1, ZO-2 and occludin (western blot): potent recovering effect
[5]; decrease caused by VEGF 20 ng/ml, 6 hours
  recovering effect on the decrease of tight junction proteins ZO-1, ZO-2 and occludin (western blot): potent recovering effect
[6]; decrease caused by VEGF 100 ng, 30 μg Rk1 injected into the retina, 24 hours, mouse
  recovering effect on the decrease of tight junction proteins ZO-1, ZO-2 and occludin (western blot): potent recovering effect
[6]; decrease caused by diabetes, mouse retina
  recovering effect on the decrease of tight junction proteins ZO-1, ZO-2 and occludin (western blot): potent recovering effect
[7]; decrease caused by AGE, FIG. 7
  recovering effect on the decrease of tight junction protein ZO-1, ZO-2 and occludin (immunocytochemistry): potent recovering effect
[7]; decrease caused by VEGF 20 ng/ml, 6 hours, FIG. 8
  recovering effect on the decrease of tight junction protein ZO-1, ZO-2 and occludin (immunocytochemistry): potent recovering effect
[8]; decrease caused by VEGF 100 ng, 30 μg Rk1 injected into the retina, 24 hours, mouse, FIG. 9
  recovering effect on the decrease of tight junction protein ZO-1, ZO-2 and occludin (immunocytochemistry): potent recovering effect
[8]; decrease caused by diabetes, mouse retina, FIG. 10
  recovering effect on the decrease of tight junction protein ZO-1, ZO-2 and occludin (immunocytochemistry): potent recovering effect
[9]; VEGF 100 ng and 30 μg Rk1 injected into the retina, 24 hours, mouse
  exudation of fluorescent material (increased permeability of retinal vessel), angiography: recovered
[9]; diabetes induced mice
  exudation of fluorescent material (increased permeability of retinal vessel), angiography: recovered
